# Biological target: T1, human recombinant mGluR5 (Homo sapiens, UniProt P41594)
# T1 construct: expressed in transfected cells; host or cells: HEK 293
# Assay: positive modulation of mGluR5, calcium based FLIPR assay
# Details: HEK 293 cell line expressing human recombinant mGluR5; EC50 of the modulation from peak Ca fluorescence signal after glutamate at approx. 5% basal stimulation
# How it was run: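 HEK 293 cells expressing human recombinant mGluR5, Calcium-4 dye-loaded in Ringer solution pH 7.4. Compound (1% DMSO final) preincubated 5 min, then glutamate at ~5% of maximal effect added; peak Ca2+ fluorescence gives EC50 by nonlinear regression, normalized to DMSO (100%) and 10 μM CDPPB (200%) controls.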
# T1 sequence (P41594 21-1212): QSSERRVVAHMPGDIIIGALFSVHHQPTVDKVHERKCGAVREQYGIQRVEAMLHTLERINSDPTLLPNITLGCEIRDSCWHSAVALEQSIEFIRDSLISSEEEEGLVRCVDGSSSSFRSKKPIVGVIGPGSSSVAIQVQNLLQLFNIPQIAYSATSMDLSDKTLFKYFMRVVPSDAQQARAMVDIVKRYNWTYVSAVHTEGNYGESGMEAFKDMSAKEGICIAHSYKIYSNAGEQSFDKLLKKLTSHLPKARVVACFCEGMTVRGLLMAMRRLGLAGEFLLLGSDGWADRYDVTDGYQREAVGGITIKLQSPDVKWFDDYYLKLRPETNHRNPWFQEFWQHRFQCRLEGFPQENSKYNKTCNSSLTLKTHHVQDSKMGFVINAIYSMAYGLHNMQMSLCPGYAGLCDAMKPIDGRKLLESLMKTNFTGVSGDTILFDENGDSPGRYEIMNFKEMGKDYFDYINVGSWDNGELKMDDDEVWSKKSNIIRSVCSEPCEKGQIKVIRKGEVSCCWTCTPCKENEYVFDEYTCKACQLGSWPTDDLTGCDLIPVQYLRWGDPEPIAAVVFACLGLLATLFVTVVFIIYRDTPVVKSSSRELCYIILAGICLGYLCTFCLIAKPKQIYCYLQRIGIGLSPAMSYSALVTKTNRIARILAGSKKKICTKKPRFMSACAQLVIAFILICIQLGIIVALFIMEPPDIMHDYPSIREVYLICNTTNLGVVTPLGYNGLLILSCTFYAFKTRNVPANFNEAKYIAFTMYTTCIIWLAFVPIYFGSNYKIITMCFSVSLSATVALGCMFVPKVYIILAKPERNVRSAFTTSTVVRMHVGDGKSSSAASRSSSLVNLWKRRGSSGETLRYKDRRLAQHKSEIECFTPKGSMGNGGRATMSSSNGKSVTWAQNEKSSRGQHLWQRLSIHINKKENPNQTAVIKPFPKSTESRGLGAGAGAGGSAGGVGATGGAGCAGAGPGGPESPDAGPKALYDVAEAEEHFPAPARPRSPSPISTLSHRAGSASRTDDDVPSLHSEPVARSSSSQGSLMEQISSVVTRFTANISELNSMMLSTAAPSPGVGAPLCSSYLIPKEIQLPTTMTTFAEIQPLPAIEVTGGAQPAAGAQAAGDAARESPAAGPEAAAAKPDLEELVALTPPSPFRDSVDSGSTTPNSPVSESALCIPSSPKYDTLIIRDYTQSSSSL
row,EC50 [nM],SMILES
1,477,CCc1cc(-c2ccc(F)c(C)c2)nn1CC(=O)N1CCc2cn[nH]c2CC1 [Example 7.01.098]
2,914,N#Cc1ccc(Cl)cc1NC1CCN(C(=O)Cn2nc(-c3ccccc3)cc2-c2ccccc2)CC1 [Example 7.01.053]
3,76,COc1ccc(-c2cc(-c3ccccc3)n(CC(=O)N3CCc4nc(C)sc4CC3)n2)cc1C [Example 7.02.241]
4,29,N#Cc1cccc(-c2cc(-c3ccccc3)n(CC(=O)N3CCc4nc(N)sc4CC3)n2)c1 [Example 7.02.190]
5,62,COc1ccc(-c2cc(-c3ccccc3)n(CC(=O)N3Cc4nc(C)oc4C3)n2)cc1C [Example 7.02.246]
6,149,CCCc1cc(-c2ccc(F)c(C)c2)nn1CC(=O)N1CCN(c2nc(C)co2)CC1 [Example 7.02.166]
7,9,CCCc1cc(-c2ccc(F)c(C)c2)nn1CC(=O)N1CCc2nc(C)oc2CC1 [Example 7.02.215]
8,36,Cc1nnc(C2CCN(C(=O)Cn3nc(-c4ccc(F)c(C)c4)cc3-c3ccccc3)CC2)o1 [Example 7.02.019]
9,120,CCc1cc(-c2ccc(F)c(C)c2)nn1CC(=O)N1CCN(c2nnc(C(F)(F)F)s2)CC1 [Example 7.02.162]
10,43,CCc1cc(-c2ccc(F)c(C)c2)nn1CC(=O)N1CCN(c2noc(C)n2)CC1 [Example 7.02.196]
11,29,CCc1cc(-c2ccc(F)c(C)c2)nn1CC(=O)N1CCc2nc(C)sc2CC1 [Example 7.02.024]
12,42,Cc1nc2c(s1)CCN(C(=O)Cn1nc(-c3ccc(F)c(C)c3)cc1C(C)C)CC2 [Example 7.02.055]
13,280,COc1ccc(-c2cc(-c3ccccc3)n(CC(=O)N3Cc4nc(C)sc4C3)n2)cc1C [Example 7.02.233]
14,205,COc1cccc(N2CCN(C(=O)Cn3nc(-c4ccccc4)cc3-c3ccccc3)CC2=O)c1 [Example 7.01.035]
15,57,Cc1cc(-c2cc(-c3ccccc3)n(CC(=O)N3CCc4ccsc4CC3)n2)ccc1F [Example 7.02.130]
16,44,Nc1nc2c(s1)CCN(C(=O)Cn1nc(-c3cccc(Cl)c3)cc1-c1ccccc1)CC2 [Example 7.02.138]
17,44,Cc1csc(N2CCN(C(=O)Cn3nc(-c4ccc(F)c(C)c4)cc3-c3ccccc3)CC2)n1 [Example 7.02.159]
18,101,Cc1nnc(C2CCN(C(=O)Cn3nc(-c4cccc(Cl)c4)cc3-c3ccccc3)CC2)o1 [Example 7.02.139]
19,11,CCc1nc2c(o1)CN(C(=O)Cn1nc(-c3ccc(F)c(C)c3)cc1CC)C2 [Example 7.02.256]
20,200,Cc1nnc(N2CCN(C(=O)Cn3nc(-c4ccc(OC(F)F)cn4)cc3-c3ccccc3)CC2)o1 [Example 7.02.234]
21,136,Cc1cc(-c2cc(C3CC3)n(CC(=O)N3CCc4nc(N)sc4CC3)n2)ccc1F [Example 7.02.036]
22,108,Cc1nc(N2CCN(C(=O)Cn3nc(-c4ccc(F)c(C)c4)cc3C)CC2)no1 [Example 7.02.154]
23,925,O=C(Cn1nc(-c2ccccc2)cc1-c1ccccc1)N1CCN(c2ccccc2)C(=O)C1 [Example 7.02.003]
24,693,Cc1cc(-c2cc(-c3ccccc3)n(CC(=O)N3CCC(C)(c4nnc(C(C)C)o4)CC3)n2)ccc1F [Example 7.02.018]
25,86,COc1ccc2c(c1)CCN(C(=O)Cn1nc(-c3ccc(F)c(C)c3)cc1-c1ccccc1)CC2 [Example 7.01.083]
26,92,Cc1nc2c(o1)CN(C(=O)Cn1nc(-c3ccc(F)c(C)c3)cc1C)C2 [Example 7.02.155]
27,64,Cc1nc2c(s1)CN(C(=O)Cn1nc(-c3ccc(F)c(C)n3)cc1-c1ccccc1)C2 [Example 7.02.172]

row,EC50 [nM],SMILES
1,194,CNc1nc2c(s1)CCN(C(=O)Cn1nc(-c3ccc(F)c(C)c3)cc1C1CC1)CC2 [Example 7.02.037]
2,24,CCc1cc(-c2ccc(F)c(C)c2)nn1CC(=O)N1CCc2nc(C)oc2CC1 [Example 7.02.066]
3,710,O=C(Cn1nc(-c2ccccc2)cc1-c1ccccc1)N1Cc2nc(-c3ccccc3)sc2C1 [Example 7.01.032]
4,695,O=C(Cn1nc(-c2ccccc2)cc1-c1ccccc1)N1CCc2cc(C(F)(F)F)ccc2C1 [Example 7.01.010]
5,186,Cc1cc(-c2cc(C(C)C)n(CC(=O)N3CCc4nc(N)sc4CC3)n2)ccc1F [Example 7.02.054]
6,45,CCc1cc(-c2ccc(F)c(C)c2)nn1CC(=O)N1CC=C(c2ncc(C)s2)CC1 [Example 7.02.135]
7,172,CCCc1cc(-c2ccc(F)c(C)n2)nn1CC(=O)N1CCc2nc(C)sc2CC1 [Example 7.02.247]
8,53,CCc1cc(-c2ccc(F)c(C)c2)nn1CC(=O)N1CCc2nc(OC)sc2CC1 [Example 7.01.054]
9,85,COc1ccc(-c2cc(-c3ccccc3)n(CC(=O)N3CCc4nc(C)sc4CC3)n2)cc1C [Example 7.02.240]
10,13,CCCc1cc(-c2ccc(F)c(C)c2)nn1CC(=O)N1CCN(c2noc(C)n2)CC1 [Example 7.02.211]
11,68,Cc1cnc(C2CCN(C(=O)Cn3nc(-c4cccc(Cl)c4)cc3-c3ccccc3)CC2)o1 [Example 7.02.144]
12,12,Cc1cc(-c2cc(-c3ccccc3)n(CC(=O)N3CCc4nc(N)sc4CC3)n2)ccc1F [Example 7.02.023]
13,47,COc1cccc(N2CCN(C(=O)Cn3nc(-c4ccc(F)cc4)cc3-c3ccc(F)cc3)CC2=O)c1 [Example 7.02.012]
14,1020,O=C(Cn1nc(-c2ccccc2)cc1-c1ccccc1)N1CCc2cc(F)ccc2C1 [Example 7.01.027]
15,211,COc1cc(-c2cc(-c3ccccc3)n(CC(=O)N3CCC(c4nnc(C)o4)CC3)n2)ccc1F [Example 7.02.151]
16,58,CCc1cc(-c2ccc(F)c(C)c2)nn1CC(=O)N1CCN(c2cccc(OC)c2)C(=O)C1 [Example 7.02.027]
17,42,CCCc1cc(-c2ccc(F)c(C)c2)nn1CC(=O)N1Cc2nc(C)sc2C1 [Example 7.02.034]
18,35,Cc1nc2c(s1)CCN(C(=O)Cn1nc(-c3ccc(F)c(C)c3)cc1C1CC1)CC2 [Example 7.02.035]
19,178,COc1cnc(C2CCN(C(=O)Cn3nc(-c4cccc(C)c4)cc3-c3ccccc3)CC2)nc1 [Example 7.02.203]
20,3,Cc1nc2c(o1)CN(C(=O)Cn1nc(-c3ccc(F)c(C)c3)cc1-c1ccccc1)C2 [Example 7.02.212]
21,27,Cc1cnc(C2=CCN(C(=O)Cn3nc(-c4cccc(Cl)c4)cc3-c3ccccc3)CC2)o1 [Example 7.02.142]
22,352,CCc1cc(-c2ccc(F)c(C)c2)nn1CC(=O)N1CC=C(c2cccc(OC)c2)CC1 [Example 7.02.137]
23,26,CCc1cc(-c2ccc(F)c(C)c2)nn1CC(=O)N1Cc2nc(C)oc2C1 [Example 7.02.213]
24,192,COc1ccc(-c2cc(C(C)C)n(CC(=O)N3CCc4nc(N)sc4CC3)n2)cc1 [Example 7.02.042]
25,80,Cc1nc2c(s1)CN(C(=O)Cn1nc(-c3cccc(C#N)c3)cc1-c1ccccc1)C2 [Example 7.02.191]
26,4,Cc1nc2c(s1)CCN(C(=O)Cn1nc(-c3ccc(OC(F)F)cc3)cc1-c1ccccc1)CC2 [Example 7.02.221]
27,1160,O=C(Cn1nc(-c2ccccc2)cc1-c1ccccc1)N1CCc2c(F)ccc(F)c2C1 [Example 7.01.024]

# Source: US8741892B2, “Compounds” (Boehringer Ingelheim International GmbH, priority 2011, dated 2014)
